SMILES strings stand for the structures. ≈ marks a conversion by molar mass, not a printed value. Like-named read-outs stand apart in the source and are kept apart here. Some results are limits rather than exact numbers.

Assay [1] relates to S. pneumoniae* GC4465 (Clinical). The experiment in a line: MIC broth microdilution, S. pneumoniae GC4465 (Clinical). It counts as cell-based. The note with it: 18-22 hours at 35° C. A digest of the protocol:
(§1)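 MIC determined by NCCLS-recommended broth microdilution. Organisms grown at 10^5 CFU/ml in Mueller-Hinton II broth against serially diluted compound, 18-22 hours at 35° C.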

Assay [2] relates to M. catarrhalis* GC6907 (Clinical). The experiment in a line: MIC broth microdilution, M. catarrhalis GC6907 (Clinical). In kind it is cell-based. The note with it: 18-22 hours at 35° C. A digest of the protocol:
as §1

The subject of assay [3] is E. coli GC4560 (IMP mutant). The experiment in a line: MIC broth microdilution, E. coli GC4560 (IMP mutant). In kind it is cell-based. The conditions noted are these: MHBII, 18-22 hours at 35° C. A digest of the protocol: (§2)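 Broth microdilution per NCCLS in Mueller-Hinton II broth, serial compound dilutions inoculated to 10^5 CFU/ml. Plates incubated 18-22 hours at 35° C in ambient air.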

Assay [4] has as its system S. aureus GC4536 (Smith MP -In Vivo). The experiment in a line: MIC broth microdilution, S. aureus GC4536 (Smith MP -In Vivo). In kind it is cell-based. The note with it: MHBII, 18-22 hours at 35° C. A digest of the protocol:
as §1

The subject of assay [5] is E. faecalis GC4555 (ATCC Control). The experiment in a line: MIC broth microdilution, E. faecalis GC4555 (ATCC Control). In kind it is cell-based. The conditions noted are these: MHBII, 18-22 hours at 35° C. The essentials: as §1
Assay [6] deals with C. albicans GC3066 ATCC (Control). The experiment in a line: MIC broth microdilution, C. albicans GC3066 ATCC (Control). It counts as cell-based. The note with it: 18-22 hours at 35° C. The essentials: as §1
In the next assay the test system is E. coli GC1073 (tet(B)). The experiment in a line: MIC broth microdilution, E. coli GC1073 (tet(B)). In kind it is cell-based. The note with it: MHBII, 18-22 hours at 35° C. A digest of the protocol:
as §2

Assay [7] deals with E. faecalis GC2242 (Van-resistant). The experiment in a line: MIC broth microdilution, E. faecalis GC2242 (Van-resistant). The note with it: MHBII, 18-22 hours at 35° C. In kind it is cell-based. The essentials: as §1
The subject of assay [8] is E. coli GC2203 (ATCC Control). The experiment in a line: MIC broth microdilution, E. coli GC2203 (ATCC Control). In kind it is cell-based. The conditions noted are these: MHBII, 18-22 hours at 35° C. The essentials:
as §1

Assay [9] deals with Staphylococcal aureus Smith M P. The experiment in a line: In vivo antibacterial evaluation, acute lethal infection in mice. The conditions noted are these: Mus musculus, iv, 168 h; single intraveneous dose; female CD-1 mice; 7 day survival ratios, 3 tests pooled; read-out: SIV* ED50.
Assay [10] has as its system S. aureus GC1131 (Clinical). The experiment in a line: MIC broth microdilution, S. aureus GC1131 (Clinical). In kind it is cell-based. The note with it: MHBII, 18-22 hours at 35° C. The essentials: as §1
In assay [11] the test system is Staphylococcal aureus Smith M P. The experiment in a line: In vivo antibacterial evaluation, acute lethal infection in mice. The note with it: Mus musculus; single oral dose 30 minutes after intraperitoneal challenge; female CD-1 mice; 7 day survival ratios, 3 tests pooled; read-out: SOD* ED50.
The test system is the same in assay [12]. The experiment in a line: MIC reported in Table 2 beside the in vivo ED50. It counts as cell-based. The conditions noted are these: Staphylococcus aureus, infecting strain S. aureus Smith MP.
Assay [13] deals with S. aureus GC6467 (tet(M) + (K)). The experiment in a line: MIC broth microdilution, S. aureus GC6467 (tet(M) + (K)). In kind it is cell-based. The conditions noted are these: MHBII, 18-22 hours at 35° C. The essentials: as §2
Assay [14] concerns E. faecalis GC2267 (tet(L) + (M) + (S)). The experiment in a line: MIC broth microdilution, E. faecalis GC2267 (tet(L) + (M) + (S)). It counts as cell-based. The note with it: MHBII, 18-22 hours at 35° C. A digest of the protocol:
as §2

For assay [15], the system named is S. aureus GC2216 (ATCC Control). The experiment in a line: MIC broth microdilution, S. aureus GC2216 (ATCC Control). It counts as cell-based. The note with it: MHBII, 18-22 hours at 35° C. The essentials: as §1
A further assay relates to E. coli GC2270 (tet(M)). The experiment in a line: MIC broth microdilution, E. coli GC2270 (tet(M)). It counts as cell-based. The note with it: MHBII, 18-22 hours at 35° C. A digest of the protocol: as §2
Assay [16] concerns S. aureus GC1079 (tet(K)). The experiment in a line: MIC broth microdilution, S. aureus GC1079 (tet(K)). The conditions noted are these: MHBII, 18-22 hours at 35° C. It counts as cell-based. The essentials: as §1
In assay [17] the test system is S. pneumoniae* GC1894 (Clinical). The experiment in a line: MIC broth microdilution, S. pneumoniae GC1894 (Clinical). The note with it: 18-22 hours at 35° C. In kind it is cell-based. A digest of the protocol:
as §1

For assay [18], the system named is E. coli GC4559 (parent GC4560). The experiment in a line: MIC broth microdilution, E. coli GC4559 (parent GC4560). It counts as cell-based. The conditions noted are these: MHBII, 18-22 hours at 35° C. The essentials: as §1
The test system of assay [19] is H. influenzae<> GC6896 (ATCC Control). The experiment in a line: MIC broth microdilution, H. influenzae GC6896 (ATCC Control). It counts as cell-based. The note with it: 18-22 hours at 35° C. A digest of the protocol: as §1
Assay [20] relates to S. pyogenes* GC4563 (Clinical). The experiment in a line: MIC broth microdilution, S. pyogenes GC4563 (Clinical). It counts as cell-based. The note with it: 18-22 hours at 35° C. A digest of the protocol:
as §1

Assay [21] has as its system S. aureus GC6466 (tet(M)). The experiment in a line: MIC broth microdilution, S. aureus GC6466 (tet(M)). It counts as cell-based. The note with it: MHBII, 18-22 hours at 35° C. The essentials:
as §1

For the compound `CN(C)c1cc(NC(=O)CNOC(C)(C)C)c(O)c2c1C[C@H]1C[C@H]3[C@H](N(C)C)C(O)=C(C(N)=O)C(=O)[C@@]3(O)C(O)=C1C2=O` [Example 4, (4S,4aS,5aR,12aS)-9-{[N-(tert-butoxy)glycyl]amino}-4,7-bis(dimethylamino)-3,10,12,12a-tetrahydroxy-1,11-dioxo-1,4,4a,5,5a,6,11,12a-octahydrotetracene-2-carboxamide], the “minimum inhibitory concentration (MIC)” value is 0.25 in [1]; 0.50 in assay [2]; 0.50 in [3]; 1 in [4]; 1 in assay [5]; over 64 in [6]. Further, the “minimum inhibitory concentration (MIC)” value was 16 in the assay with E. coli GC1073 (tet(B)); 1 in assay [7]; 8 in assay [8]; 1 in [10]; over 64 in [13]; 8 in [14]. The “minimum inhibitory concentration (MIC)” value in assay [15] was determined as 1; with E. coli GC2270 (tet(M)) it was 8; in [16], 16; in assay [17] it was 0.25; in assay [18], 16; in assay [19], 2. The “minimum inhibitory concentration (MIC)” value in [20] is 0.12; in [21], 1. The ED50 in [9] was 0.25 to 1 mg/kg; in assay [11], 1.1 mg/kg. Also, in assay [12], the MIC stood at 4 µg/mL (≈ 6.65 µM).
